From paper PMC11647725, “Discovery of 4-(5-Membered)Heteroarylether-6-methylpicolinamide Negative Allosteric Modulators of Metabotropic Glutamate Receptor Subtype 5” (ACS Medicinal Chemistry Letters, 2024)

How the values were obtained:
Muscarinic M2 = Muscarinic M2 (Homo sapiens, UniProt P08172); assay: Lead Profiling Screen, Eurofins Panlabs; format: binding; settings: Muscarinic M2, hum, read-out: % inh at 10 μM
human mGlu5 = target: T1, human mGlu5 (Homo sapiens, UniProt P41594); assay: Calcium mobilization assay in human mGlu5-HEK293A cells (NAM, EC80 glutamate); format: cell-based
T1 construct: expressed in transfected cells
T1 sequence (P41594 21-1212): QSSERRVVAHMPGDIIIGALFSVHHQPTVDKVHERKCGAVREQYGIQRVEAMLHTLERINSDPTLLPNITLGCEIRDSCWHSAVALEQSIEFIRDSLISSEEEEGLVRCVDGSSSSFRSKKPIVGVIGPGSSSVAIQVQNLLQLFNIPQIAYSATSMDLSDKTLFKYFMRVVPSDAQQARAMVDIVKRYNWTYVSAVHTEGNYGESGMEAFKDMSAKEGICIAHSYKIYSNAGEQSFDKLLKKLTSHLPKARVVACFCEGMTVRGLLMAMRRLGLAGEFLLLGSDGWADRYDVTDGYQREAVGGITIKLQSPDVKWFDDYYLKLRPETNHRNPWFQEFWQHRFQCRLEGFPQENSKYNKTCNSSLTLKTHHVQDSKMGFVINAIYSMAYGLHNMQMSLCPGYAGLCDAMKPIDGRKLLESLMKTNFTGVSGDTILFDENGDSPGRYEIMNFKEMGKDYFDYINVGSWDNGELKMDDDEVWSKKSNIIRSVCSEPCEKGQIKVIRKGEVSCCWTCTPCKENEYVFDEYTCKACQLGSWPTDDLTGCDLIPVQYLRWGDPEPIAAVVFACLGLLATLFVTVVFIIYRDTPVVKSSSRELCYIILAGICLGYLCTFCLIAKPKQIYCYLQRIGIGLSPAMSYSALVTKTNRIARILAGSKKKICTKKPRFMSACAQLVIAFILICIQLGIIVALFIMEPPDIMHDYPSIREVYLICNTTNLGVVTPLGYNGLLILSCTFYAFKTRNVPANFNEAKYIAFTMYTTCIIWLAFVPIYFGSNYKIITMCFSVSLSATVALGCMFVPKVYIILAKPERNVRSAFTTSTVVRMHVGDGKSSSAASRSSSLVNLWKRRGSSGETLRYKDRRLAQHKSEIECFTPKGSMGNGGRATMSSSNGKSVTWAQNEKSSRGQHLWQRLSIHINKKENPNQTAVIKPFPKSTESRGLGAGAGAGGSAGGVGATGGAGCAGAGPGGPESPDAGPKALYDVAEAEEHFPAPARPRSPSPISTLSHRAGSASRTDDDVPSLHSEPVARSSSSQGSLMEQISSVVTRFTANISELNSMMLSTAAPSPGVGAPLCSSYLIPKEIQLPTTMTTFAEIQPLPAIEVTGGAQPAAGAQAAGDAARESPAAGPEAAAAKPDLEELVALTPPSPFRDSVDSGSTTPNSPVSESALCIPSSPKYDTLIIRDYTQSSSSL

Sodium Channel, Site 2 = assay: Lead Profiling Screen, Eurofins Panlabs; format: binding; settings: Site 2, rat
[1] = Binding in plasma from human (equilibrium dialysis); format: in vitro ADME; settings: human, plasma, read-out: Human fu,plasma
Protocol: (§1) Binding in plasma from rat and human.
(§2) Determination of compounds’ fraction unbound (f u) in plasma from rat and human was conducted in vitro via equilibrium dialysis using HTDialysis membrane plates. Dialysis membranes (four paired strips per HTD assay) were hydrated as described by the manufacturer and inserted into the HTD plate, which was assembled and prepared for sample addition by the dispensing of blank buffer (DPBS, 100 µL/well) into the ‘top half’ of each membrane-split well. Each compound was diluted into plasma from each species (5 µM final concentration), which was aliquoted in triplicate to the ‘bottom half’ of the prepared HTD plate wells. The HTD plate was sealed and incubated for 6 hours at 37 °C. Following incubation, each well (both top and bottom halves) were transferred (20 µL) to the corresponding wells of a 96-shallow-well (V-bottom) plate. The daughter plates were then matrix-matched (buffer side wells received equal volume of plasma, and plasma side wells received equal volume of buffer), and extraction solution (120 µL; acetonitrile containing 50 nM carbamazepine as IS) was added to all wells of both daughter plates to precipitate protein and extract test article. The plates were then sealed and centrifuged (3500 rcf) for 10 minutes at ambient temperature. Supernatant (60 µL) from each well of the daughter plates was then transferred to the corresponding wells of new daughter plates (96-shallow-well, V bottom) containing water (Milli-Q, 60 µL/well), and the plates were sealed in preparation for LC-MS/MS analysis (see below). fu was calculated as (analyte to IS MS peak area ratio from Trans-buffer side) / (analyte to IS MS peak area ratio from Cis-plasma side). Mean values for each species were calculated from 3 replicates. […]
(§3) Mean values for each species were calculated from 3 replicates. […]
(§4) After 5 minutes (pre-incubation), reactions were initiated by addition of nicotinamide adenine dinucleotide phosphate (NADPH, 1 mM final concentration). At selected time intervals (0, 3, 7, 15, 25, and 45 minutes) post-addition of NADPH, aliquots (50 µL) were taken and placed into a 96-shallow-well plate containing ice cold acetonitrile (150 µL) with carbamazepine (IS, 50 nM). The plates were then centrifuged (3000 rcf at 4 °C) for 10 minutes. The supernatants were transferred to a new 96-shallow-well daughter plate and diluted (1:1 v/v) with water (Milli-Q filtered). The plates were then sealed in preparation for LC-MS/MS analysis (see below).

[2] = Intrinsic clearance in rat liver microsomes; format: in vitro ADME
Protocol: Mean values for each species were calculated from 3 replicates.
Intrinsic Clearance in Rat and Human Liver Microsomes
The in vitro intrinsic clearance (CL int) was investigated in commercially obtained hepatic microsomes from rat and human donors using the substrate depletion (i.e., loss-of-parent vs. time, or t 1/2 method) approach with analyte detection via liquid chromatography-tandem mass spectrometry (LC-MS/MS). For each species, mean %parent remaining values at each time point were calculated from replicates raw data (analyte:IS peak area ratios) and used to determine in vitro t 1/2 and CLint.
as §4, with “Experiments were carried out using a robot-assisted (TECAN model Evo 200). Compound was incubated (1 µM final concentration) in buffer (100 mM potassium phosphate pH 7.4 with 3 mM MgCl2) containing hepatic microsomes (0.5 mg/mL final concentration) from multiple species, discretely, at 37 °C under constant orbital shaking. After” for “After”
Raw LC-MS/MS peak area data generated from the assay samples were used to construct natural log-transformed %parent remaining vs. time plots (using t = 0 minute post-NADPH addition sample data as starting point set to 100%). In vitro compound half-life (t 1/2) values were obtained using the following […]
k is the slope from linear regression analysis of the natural log-transformed data (using means from Where all replicates at each time point). Resulting t 1/2 values were then used to calculate hepatic CLint values according to the following equation and with the use of species-specific scale-up factors for liver weight (grams) per total body weight (kg): […]
CLint = in vitro t1/2 x 0.5 mg microsomes x 1 gram liver x kg body wt aScale-up factors used are 45 (rat) and 20 (human).4
Predicted hepatic clearance (CLhep) was calculated using the following equation: […]
Qh represents hepatic blood flow (mL/min/kg): 21 for human, 70 for rat, and 90 for mouse.
Prepared samples were injected (10 µL each) onto an AB Sciex Triple Quad 4500 mass spectrometer system with an Agilent 1260 Infinity II pump and autosampler. Mass spectrometer conditions are described in Table S1. Quantitation of compounds was performed via AB Sciex Multiquant software using the raw analyte:IS peak area ratios. The typical detection range was 0.5 ng/mL to ≥ 5,000 ng/mL utilizing a quadratic equation regression with 1/x2 weighting.
Correction for dilution of all brain samples (in extraction buffer and subsequently in blank plasma, as previously described) was performed post-quantitation. The corrections for dilution in extraction buffer employed correction factors specific to each brain weight (not shown).

Potassium Channel [KATP] = assay: Lead Profiling Screen, Eurofins Panlabs; format: binding, hamster; settings: ham
[3] = target: Serotonin (5-Hydroxytryptamine) 5-HT3 (Homo sapiens, UniProt P46098); assay: Lead Profiling Screen, Eurofins Panlabs; format: binding; settings: Serotonin 5-HT3, hum, read-out: % inh at 10 μM
Chain of Serotonin (5-Hydroxytryptamine) 5-HT3 (P46098 24-478): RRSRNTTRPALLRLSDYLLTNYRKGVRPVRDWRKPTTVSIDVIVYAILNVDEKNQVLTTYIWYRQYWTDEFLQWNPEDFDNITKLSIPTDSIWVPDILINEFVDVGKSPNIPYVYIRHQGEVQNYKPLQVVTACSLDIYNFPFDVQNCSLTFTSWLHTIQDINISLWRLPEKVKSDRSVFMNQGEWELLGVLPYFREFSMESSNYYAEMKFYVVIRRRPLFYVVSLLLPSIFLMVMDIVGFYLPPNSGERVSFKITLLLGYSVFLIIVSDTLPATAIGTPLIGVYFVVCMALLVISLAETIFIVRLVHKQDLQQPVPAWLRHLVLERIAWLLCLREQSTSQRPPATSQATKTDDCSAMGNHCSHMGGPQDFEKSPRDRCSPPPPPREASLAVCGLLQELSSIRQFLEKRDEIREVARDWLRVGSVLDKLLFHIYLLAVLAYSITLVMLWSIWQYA

Neuropeptide Y Y1 = Neuropeptide Y Y1 (Homo sapiens, UniProt P25929); assay: Lead Profiling Screen, Eurofins Panlabs; format: binding; settings: Neuropeptide Y Y1, hum, read-out: % inh at 10 μM
Chain of Neuropeptide Y Y1 (P25929 whole entry): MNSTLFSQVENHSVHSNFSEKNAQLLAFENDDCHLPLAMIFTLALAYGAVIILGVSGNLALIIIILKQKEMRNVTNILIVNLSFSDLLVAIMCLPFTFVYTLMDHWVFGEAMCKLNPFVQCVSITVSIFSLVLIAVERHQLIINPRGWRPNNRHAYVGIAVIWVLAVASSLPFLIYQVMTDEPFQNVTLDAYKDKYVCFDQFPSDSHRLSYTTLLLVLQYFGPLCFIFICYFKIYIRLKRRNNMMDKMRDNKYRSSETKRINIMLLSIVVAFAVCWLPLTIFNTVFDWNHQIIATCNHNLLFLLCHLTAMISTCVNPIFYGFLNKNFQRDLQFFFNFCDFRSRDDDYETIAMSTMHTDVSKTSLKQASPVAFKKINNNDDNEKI

Thyroid Hormone = assay: Lead Profiling Screen, Eurofins Panlabs; format: binding; settings: rat
[4] = Binding in plasma from rat (equilibrium dialysis); format: in vitro ADME; settings: rat, plasma, fraction unbound; equilibrium dialysis; read-out: Rat fu,plasma
Protocol: as §1, §2, §3, §4

[5] = system: Purinergic P2Y, Non-Selective; assay: Lead Profiling Screen, Eurofins Panlabs; format: binding; settings: rat

Chain of Muscarinic M2 (P08172 whole entry): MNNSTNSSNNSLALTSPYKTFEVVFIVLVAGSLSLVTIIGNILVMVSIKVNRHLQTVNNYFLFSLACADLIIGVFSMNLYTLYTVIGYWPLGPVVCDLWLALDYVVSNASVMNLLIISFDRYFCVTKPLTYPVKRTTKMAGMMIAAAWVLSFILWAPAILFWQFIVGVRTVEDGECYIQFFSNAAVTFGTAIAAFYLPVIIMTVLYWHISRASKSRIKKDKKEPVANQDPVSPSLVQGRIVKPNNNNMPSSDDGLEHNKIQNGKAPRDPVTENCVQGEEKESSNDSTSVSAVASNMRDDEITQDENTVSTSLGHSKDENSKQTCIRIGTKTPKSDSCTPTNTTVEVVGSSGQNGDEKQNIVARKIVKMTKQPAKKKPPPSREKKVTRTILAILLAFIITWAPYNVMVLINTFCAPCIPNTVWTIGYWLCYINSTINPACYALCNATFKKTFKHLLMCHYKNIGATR

Cc1cc(Oc2cnn(C)c2)cc(C(=O)Nc2ccc(F)cn2)n1 [22iA]
inhibition at 10 µM (Muscarinic M2): -2% | fold increase in hmGlu5 potency (human mGlu5; 22fC vs 22bC, 22gA vs 22iA, 22iA vs 22hA, 22iB vs 22hB): 1.6 fold | % GluMin (human mGlu5; efficacy of the NAM to reduce an EC80 response of glutamate, human mGlu5-HEK293A cells): 2% | pIC50 (human mGlu5; human mGlu5-HEK293A cells, EC80 fixed concentration of glutamate, n = 2 in triplicate): 6.49 | IC50 (human mGlu5; human mGlu5-HEK293A cells, EC80 fixed concentration of glutamate, read-out: hmGlu5 IC50): 325 nM | % inh at 10 μM (Sodium Channel, Site 2): 25% | fraction unbound at 6 h, 5 µM [1]: 0.059 | CLint scaled at 40 min, 1 µM ([2]; pH 7.4, rat liver microsomes): 48 mL/min/kg | CLhep, rat ([2]; predicted hepatic clearance based on microsomal CLint): 28 mL/min/kg | % inh at 10 μM (Potassium Channel [KATP]): 2% | inhibition at 10 µM [3]: -6% | inhibition at 10 µM (Neuropeptide Y Y1): -2% | % inh at 10 μM (Thyroid Hormone): -2% | fraction unbound at 6 h, 5 µM [4]: 0.059 | % inh at 10 μM [5]: 9%
